These results are taken from patent publication US12116593B2, “Method for producing adenohypophysis or precursor tissue thereof” (RIKEN, priority 2014, dated 2024).

Ends that are not written are not given here. Some results are limits rather than exact numbers.

Data set [1] relates to Tbx19. In words: Tbx19 expression in aggregates by qPCR. Type of data set: cell-based, human. The note with it: DAPT 10 μM day 65 to 74; aggregates on day 74. As to the method: According to the method of Example 5, hypophysial placode derived from human ES cells was formed, and cultured for a long term. DAPT (10 μM), a Notch signal inhibitor, was allowed to act thereon from day 65 to day 74 of culture, and the effect thereof was analyzed by a qPCR method.

Data set [2] relates to Human ES cells (KhES-1). In words: Differentiation of human ES cell aggregates in serum-free suspension culture (SFEBq), fluorescent antibody method. Type of data set: cell-based. An excerpt: Human ES cells (KhES-1) were subjected to maintenance culture by a conventional method on MEF and used. To monitor differentiation induction into a hypothalamus tissue, KhES-1 wherein Venus cDNA is knocked-in into the gene of Rx which is a hypothalamus neuroepithelium marker was used. To differentiate human ES cells by serum-free suspension culture of aggregate (SFEBq method), human ES cells were dispersed to single cells by enzyme by the method of Nakano et al. (Cell Stem Cell, 2012), and reaggregated in a low cell adhesive V-bottom 96 well plate (SUMITOMO BAKELITE). 5,000 cells were seeded per well, and cultured in the following differentiation medium at 5% CO2, 37° C. gfCDM medium (growth-factor-free Chemically Defined Medium; Wataya et al., PNAS, 2008)+5% KSR (Invitrogen).
With the day of seeding as day 0 of differentiation culture, 20 μM Y-27632 (ROCK inhibitor; inhibitor of cell death during dispersion: Watanabe et al., Nature Biotechnology, 2007) was added from day 0 to day 3, and a half of the medium was exchanged with a differentiation medium free of Y-27632 on days 3 and 6 of culture. From day 3 to day 18 of culture, BMP4 (final concentration 5 nM) was added to the medium. On and after day 18, a half of the medium was exchanged every 3 days with a medium free of BMP4. […] On and after day 18, the oxygen partial pressure during the culture was set to 40%. Tissue differentiation was analyzed by a fluorescent antibody method.
The cell aggregates derived from human ES cells and simultaneously containing ventral hypothalamus tissue and epidermal placode were formed by the method of Example 1, culture was continued until day 27 or day 30 of culture under similar conditions, and the aggregates were analyzed by a fluorescent antibody method. In some culture, FGF2 (final concentration 20 ng/ml) was added to the medium from day 15 of culture.
By the method of Example 1, an influence of the presence or absence of BMP4 addition on the differentiation of cell aggregates was analyzed by a fluorescent antibody method.
By the method of Example 1, an influence of the presence or absence of the addition of hedgehog signal agonist SAG on the differentiation of cell aggregate was analyzed by a fluorescent antibody method.
In addition to the method of Example 8, differentiation of hypophysial placode reacted with Notch signal inhibitor DAPT (10 μM) from day 72 to day 82 of culture was analyzed by a fluorescent antibody method.

The subject of data set [3] is aggregates containing ACTH-producing cells. In words: In vitro ACTH release from aggregates containing ACTH-producing cells, ELISA. As to conditions: 37° C. The format is cell-based, human. The procedure:
In vitro hormone secretory capacity was analyzed using the aggregates containing ACTH-producing cells produced by the method of Example 5. Using a 1.5 ml Eppendorf tube containing 250 μl of HBSS(−) containing 16 aggregates at day 80 of culture, the aggregates were incubated in the presence or absence of CRH (1 μg/ml) at 37° C. for 10 min. The concentration of ACTH in the culture supernatant was quantified by the ELISA method.
Furthermore, to examine feedback suppressive ability due to downstream hormone (glucocorticoid), 16 aggregates on day 80 of culture were preincubated in the presence or absence of hydrocortisone (20 μg/ml) at 37° C. for 3 hr, and the effect of release of ACTH after CRH treatment was analyzed.
On the technique in general: An ELISA detects its analyte on a solid surface through an enzyme-linked reagent.

The subject of data set [4] is mouse system. In words: Exogenous BMP4 added to mouse system. The format is cell-based.
The subject of data set [5] is aggregate containing GH-producing cells. In words: In vitro GH release from aggregates containing GH-producing cells, ELISA. Type of data set: cell-based, human. The note with it: GRF 100 ng/ml, 37° C., 30 min; aggregates differentiated with hydrocortisone 1 μg/ml days 72-84; day 84. The procedure: In addition to the method of Example 10, in vitro hormone secretory capacity was analyzed using the aggregate containing GH-producing cells differentiated in a medium containing hydrocortisone (1 μg/ml) from days 72 to 84 of culture. Using a 1.5 ml Eppendorf tube containing 500 μl of HBSS containing 33 aggregates at day 84 of culture, the aggregates were incubated in the presence or absence of GRF (100 ng/ml) at 37° C. for 30 min. The concentration of GH in the culture supernatant was quantified by the ELISA method.
In addition to the method of Example 10, in vitro hormone secretory capacity was analyzed using the aggregate containing GH-producing cells differentiated in a medium containing dexamethasone (40 ng/ml) from days 70 to 84 of culture. Using a 1.5 ml Eppendorf tube containing 750 μl of a medium containing 30 aggregates at day 84 of culture, the aggregates were incubated in the presence of GRF (0.1, 1, 10 μg/ml) at 37° C. for 30 min. The concentration of GH in the culture supernatant was quantified by the ELISA method. In addition, in order to investigate a potential of somatostatin to suppress GH secretion, 18 aggregates at day 98 of culture were incubated in the presence or absence of somatostatin (100 ng/ml) at 37° C. for 90 min, and effects on GH release after GRF treatment were analyzed.

The mark [6] stands for this setting: SAG 2 μM from day 6, with BMP4, day 24 and 27.
Setting [7] is: BMP4 5 nM day 3-18 vs no addition, day 24.

On to `C[C@H](NC(=O)Cc1cc(F)cc(F)c1)C(=O)N[C@H](C(=O)OC(C)(C)C)c1ccccc1` [DAPT, N—[N-(3,5-difluorophenacetyl)-1-alanyl]-S-phenylglycine t-butyl ester], for which the “increase of Tbx19 expression vs non-treatment group” value in data set [1] was not below 8 times. The “endocrine cells found in hypophysial placode after DAPT” value in data set [2] (DAPT 10 μM day 72 to 82) is “LH-producing cells and FSH-producing cells were found in the hypophysial placode”.

In the case of `CN[C@H]1CC[C@H](N(Cc2cccc(-c3ccncc3)c2)C(=O)c2sc3ccccc3c2Cl)CC1` [SAG, 3-Chloro-N-[trans-4-(methylamino)cyclohexyl]-N-[[3-(4-pyridinyl)phenyl]methyl]-benzo[b]thiophene-2-carboxamide], the “tissue differentiated under BMP4 non-addition conditions” value in data set [2] (BMP4 not added, SAG 200 nM d6-25, day 24) is “FoxG1-positive and Nkx2.1-positive basal ganglion was differentiated”. Besides, in data set [2] (setting [6]), the “formation of hypophysial placode on the surface” value is reported as “hypophysial placode was formed on the surface” and the “tissue formed in the inside of the aggregates” value was “ventral hypothalamus tissue (Rx::Venus-positive, Chx10-negative, Nkx2.1-positive) was formed in the inside of the aggregates”.

On to `C[C@]12CCC(=O)C=C1CC[C@@H]1[C@@H]2[C@@H](O)C[C@@]2(C)[C@H]1CC[C@]2(O)C(=O)CO` [hydrocortisone], for which, in data set [3] (hydrocortisone 20 μg/ml preincubation 3 hr, day 80 aggregates), the “ACTH concentration after CRH treatment relative to preincubation without hydrocortisone” value is recorded as “less than one-sevenths”.

Regarding “BMP4: bone morphogenetic factor signal transduction pathway activating substance; a known cytokine”, in data set [4], the “formation of neuroepithelial tissue (hypothalamus) inside the cell aggregate” value was “acted inhibitingly on the formation of the neuroepithelial tissue (hypothalamus)” and the “formation of surface ectoderm” value is on record as “promoted formation of surface ectoderm”. Moreover, in data set [2] (setting [7]), the “differentiation of neural tissue in the aggregate” value is “differentiation induction of neural tissue of hypothalamus” and the “formation of surface ectoderm” value is “active formation of surface ectoderm”.

In the case of “CRH: hypothalamic stimulus inducing release of ACTH from ACTH-producing cells (SEEPPISLDLTFHLLREVLEMARAEQLAQQAHSNRKLMEII; ends and bridges not checked; UniProt P06850 154-194, looked up)”, in data set [3] (CRH 1 μg/ml, 10 min, 16 aggregates at day 80), the “ACTH concentration in culture supernatant vs incubation in absence of CRH” value was “not less than 5 fold”.

Take “FGF2: known cytokine also called basic fibroblast growth factor (bFGF)”: in data set [2] (FGF2 20 ng/ml from day 15 of culture, day 27/30 aggregates), the “increase of formation of hypophysial placode” value worked out at 30%.

In the case of “GRF: stimulus inducing release of GH from GH-producing cells (YADAIFTNSYRKVLGQLSARKLLQDIMSRQQGESNQERGARARL; ends and bridges not checked; UniProt P01286 32-75, looked up)”, in data set [5], the “GH concentration in culture supernatant vs incubation in absence of GRF” value was “not less than 6 fold”.
